From publication PMC11766267 (International Journal of Molecular Sciences, 2025)
Several values for one entry are separate records, joined by “and”; a condition that tells them apart may be missing. Equal entries are not always repeated. Where two headings read alike, the source gives them in different places.

Tests used:
HCT-116 = test: MTT cytotoxicity assay, HCT-116; format: cell-based; conditions: Homo sapiens, 24 h treatment, mean ± SD of triplicate
Method: (§1) Subsequently, 100 µL of dimethyl sulfoxide was introduced to dissolve the insoluble formazan.

MDA-MB-231 = test: MTT cytotoxicity assay, MDA-MB-231; format: cell-based; conditions: Homo sapiens, 24 h treatment, mean ± SD of triplicate
Method: as §1

HeLa = test: MTT cytotoxicity assay, HeLa; format: cell-based; conditions: Homo sapiens, 24 h treatment, mean ± SD of triplicate
Method: as §1

MCF-7 [1] = test: MTT cytotoxicity assay, MCF-7; format: cell-based, human; conditions: Homo sapiens, MCF7, 24 h, 24 h treatment, mean ± SD of triplicate
Method: as §1

[2] = MTT cytotoxicity assay, normal cell line WI-38; format: cell-based, human; conditions: human, WI-38 cells (normal human lung fibroblasts), normal (non-cancer) cell line, 24 h treatment
Method: as §1

WI-38 = test: MTT cytotoxicity assay, normal cell line WI-38; format: cell-based, human; conditions: normal (non-cancer) cell line, 24 h treatment
Method: as §1

[3] = test system: HCT-116, MDA-MB-231, HeLa, and MCF-7; test: MTT cytotoxicity assay, ranges stated over several cell lines; format: cell-based; conditions: Homo sapiens
Method: as §1

[4] = target: T1, aromatase (CYP19A, EC 1.14.14.14) (Homo sapiens, UniProt P11511); test: biochemical
T1 construct: Microsomal samples were isolated from tissue using the Microsome Isolation Kit; tissue BioVision K983-100; host or cells: microsomes from an unnamed tissue
T1 sequence (P11511 1-503): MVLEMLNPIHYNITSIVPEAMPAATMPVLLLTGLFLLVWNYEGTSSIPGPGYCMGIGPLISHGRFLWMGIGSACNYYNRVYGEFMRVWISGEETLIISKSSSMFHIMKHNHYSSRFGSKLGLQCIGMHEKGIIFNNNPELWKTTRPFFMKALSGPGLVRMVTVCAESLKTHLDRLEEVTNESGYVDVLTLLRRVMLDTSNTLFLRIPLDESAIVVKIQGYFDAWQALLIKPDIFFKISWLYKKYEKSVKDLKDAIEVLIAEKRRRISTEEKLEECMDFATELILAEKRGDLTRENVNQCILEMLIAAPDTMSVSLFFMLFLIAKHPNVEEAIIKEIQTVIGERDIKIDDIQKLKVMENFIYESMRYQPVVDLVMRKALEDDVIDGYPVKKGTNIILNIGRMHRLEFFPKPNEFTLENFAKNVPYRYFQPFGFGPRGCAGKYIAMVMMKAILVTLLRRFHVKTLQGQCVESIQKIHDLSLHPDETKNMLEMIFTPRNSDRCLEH
Method: In vitro aromatase assay was performed using the BioVision Aromatase Activity Assay Kit (Catalog # K983-100; BioVision, Milpitas, CA, USA). Microsomal samples were isolated from tissue using the Microsome Isolation Kit (Cat. #K249; BioVision, Milpitas, CA, USA). A standard curve was established by diluting the Fluorescence Standard provided in the kit to create a 0.5 pmole/µL solution, followed by setting up a series of standards in a white 96-well plate, adjusting the total volume to 100 µL with aromatase assay buffer. For each reaction well, a 2X concentrated mix was prepared by adding 2–48 µL of the microsomal sample and 2 µL of the NADPH generating system, bringing the final volume to 50 µL with aromatase assay buffer. Background controls (no enzyme) and positive controls (with recombinant aromatase) were included. […] After a 10 min incubation at 37 °C, 30 µL of the substrate/NADP+ mixture was added to each well, and fluorescence was measured immediately in kinetic mode for 60 min at 37 °C. Finally, the change in fluorescence was calculated to determine the specific activity of aromatase using the formula provided in the kit protocol.

MCF-7 [5] = test: In vitro anti-estrogenic activity assay, MCF-7
MCF-7a = test: In vitro anti-estrogenic activity assay, MCF-7a
EGFR = EGFR (Homo sapiens, UniProt P00533); test: In vitro protein kinase inhibition assay (ELISA kit), EGFR
EGFR, sequence (P00533 25-1210): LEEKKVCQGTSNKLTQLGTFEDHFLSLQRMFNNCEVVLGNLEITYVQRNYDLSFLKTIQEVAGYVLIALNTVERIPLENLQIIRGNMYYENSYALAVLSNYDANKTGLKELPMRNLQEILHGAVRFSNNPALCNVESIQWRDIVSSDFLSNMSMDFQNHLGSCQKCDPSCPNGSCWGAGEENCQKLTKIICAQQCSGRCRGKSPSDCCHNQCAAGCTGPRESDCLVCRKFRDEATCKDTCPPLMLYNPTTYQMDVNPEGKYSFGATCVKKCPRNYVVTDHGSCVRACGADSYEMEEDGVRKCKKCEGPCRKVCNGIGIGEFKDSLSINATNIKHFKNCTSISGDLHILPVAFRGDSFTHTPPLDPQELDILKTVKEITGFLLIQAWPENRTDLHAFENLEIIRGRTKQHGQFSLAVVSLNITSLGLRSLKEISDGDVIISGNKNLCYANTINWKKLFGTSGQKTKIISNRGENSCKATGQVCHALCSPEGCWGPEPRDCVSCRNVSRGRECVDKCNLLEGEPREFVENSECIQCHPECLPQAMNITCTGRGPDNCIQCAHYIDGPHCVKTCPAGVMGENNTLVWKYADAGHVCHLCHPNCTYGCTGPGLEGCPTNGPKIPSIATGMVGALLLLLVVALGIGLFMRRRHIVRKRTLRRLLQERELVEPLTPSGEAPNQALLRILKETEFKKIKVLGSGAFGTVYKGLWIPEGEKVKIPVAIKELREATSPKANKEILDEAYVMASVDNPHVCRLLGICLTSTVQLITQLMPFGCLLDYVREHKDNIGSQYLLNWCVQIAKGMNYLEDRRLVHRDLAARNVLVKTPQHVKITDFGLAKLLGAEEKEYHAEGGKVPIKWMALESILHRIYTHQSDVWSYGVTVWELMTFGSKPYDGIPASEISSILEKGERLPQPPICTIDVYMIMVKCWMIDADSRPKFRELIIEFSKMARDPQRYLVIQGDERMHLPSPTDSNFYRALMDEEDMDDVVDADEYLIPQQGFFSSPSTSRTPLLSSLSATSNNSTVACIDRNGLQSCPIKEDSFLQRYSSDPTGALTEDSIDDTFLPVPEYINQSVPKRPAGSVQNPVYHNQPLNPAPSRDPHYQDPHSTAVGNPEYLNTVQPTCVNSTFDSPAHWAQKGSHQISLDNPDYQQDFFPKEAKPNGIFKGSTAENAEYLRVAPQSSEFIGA

HER2 = HER2 (Homo sapiens, UniProt P04626); test: In vitro protein kinase inhibition assay (ELISA kit), HER2
HER2, sequence (P04626 23-1255): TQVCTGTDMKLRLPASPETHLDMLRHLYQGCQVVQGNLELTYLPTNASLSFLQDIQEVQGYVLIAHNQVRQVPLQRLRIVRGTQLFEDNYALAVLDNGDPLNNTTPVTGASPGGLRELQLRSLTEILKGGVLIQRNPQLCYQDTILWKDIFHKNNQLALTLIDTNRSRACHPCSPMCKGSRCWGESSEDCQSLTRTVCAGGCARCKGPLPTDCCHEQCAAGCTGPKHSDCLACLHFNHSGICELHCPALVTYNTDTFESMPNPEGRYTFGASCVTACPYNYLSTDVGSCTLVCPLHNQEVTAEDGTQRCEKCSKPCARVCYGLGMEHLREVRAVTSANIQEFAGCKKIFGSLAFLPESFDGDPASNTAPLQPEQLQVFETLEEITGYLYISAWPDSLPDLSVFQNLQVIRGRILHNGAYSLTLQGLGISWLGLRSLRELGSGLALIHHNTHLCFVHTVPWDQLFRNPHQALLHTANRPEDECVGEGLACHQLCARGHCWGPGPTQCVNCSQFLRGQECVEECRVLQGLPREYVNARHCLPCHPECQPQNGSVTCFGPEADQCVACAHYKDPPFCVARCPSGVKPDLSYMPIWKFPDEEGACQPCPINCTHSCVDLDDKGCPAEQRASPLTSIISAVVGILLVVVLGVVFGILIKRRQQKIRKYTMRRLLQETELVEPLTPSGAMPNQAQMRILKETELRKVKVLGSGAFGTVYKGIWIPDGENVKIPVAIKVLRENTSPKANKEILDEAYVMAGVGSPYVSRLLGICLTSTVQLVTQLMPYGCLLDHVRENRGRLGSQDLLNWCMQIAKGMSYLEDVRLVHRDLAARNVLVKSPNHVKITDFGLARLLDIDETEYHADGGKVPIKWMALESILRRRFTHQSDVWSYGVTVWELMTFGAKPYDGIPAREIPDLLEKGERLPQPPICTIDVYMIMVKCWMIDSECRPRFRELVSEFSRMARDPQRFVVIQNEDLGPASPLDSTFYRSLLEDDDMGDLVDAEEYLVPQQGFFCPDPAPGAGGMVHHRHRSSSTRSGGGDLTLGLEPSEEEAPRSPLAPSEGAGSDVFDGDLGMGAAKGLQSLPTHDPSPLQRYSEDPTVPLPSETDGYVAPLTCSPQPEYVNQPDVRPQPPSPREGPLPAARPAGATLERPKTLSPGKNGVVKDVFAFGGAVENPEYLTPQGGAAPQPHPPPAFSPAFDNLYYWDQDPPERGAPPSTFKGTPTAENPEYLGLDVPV

CDK2 = CDK2 (Homo sapiens, UniProt P24941); test: In vitro protein kinase inhibition assay (ELISA kit), CDK2
VEGFR-2 = VEGFR-2 (Homo sapiens, UniProt P35968); test: In vitro protein kinase inhibition assay (ELISA kit), VEGFR-2
VEGFR-2, sequence (P35968 20-1356): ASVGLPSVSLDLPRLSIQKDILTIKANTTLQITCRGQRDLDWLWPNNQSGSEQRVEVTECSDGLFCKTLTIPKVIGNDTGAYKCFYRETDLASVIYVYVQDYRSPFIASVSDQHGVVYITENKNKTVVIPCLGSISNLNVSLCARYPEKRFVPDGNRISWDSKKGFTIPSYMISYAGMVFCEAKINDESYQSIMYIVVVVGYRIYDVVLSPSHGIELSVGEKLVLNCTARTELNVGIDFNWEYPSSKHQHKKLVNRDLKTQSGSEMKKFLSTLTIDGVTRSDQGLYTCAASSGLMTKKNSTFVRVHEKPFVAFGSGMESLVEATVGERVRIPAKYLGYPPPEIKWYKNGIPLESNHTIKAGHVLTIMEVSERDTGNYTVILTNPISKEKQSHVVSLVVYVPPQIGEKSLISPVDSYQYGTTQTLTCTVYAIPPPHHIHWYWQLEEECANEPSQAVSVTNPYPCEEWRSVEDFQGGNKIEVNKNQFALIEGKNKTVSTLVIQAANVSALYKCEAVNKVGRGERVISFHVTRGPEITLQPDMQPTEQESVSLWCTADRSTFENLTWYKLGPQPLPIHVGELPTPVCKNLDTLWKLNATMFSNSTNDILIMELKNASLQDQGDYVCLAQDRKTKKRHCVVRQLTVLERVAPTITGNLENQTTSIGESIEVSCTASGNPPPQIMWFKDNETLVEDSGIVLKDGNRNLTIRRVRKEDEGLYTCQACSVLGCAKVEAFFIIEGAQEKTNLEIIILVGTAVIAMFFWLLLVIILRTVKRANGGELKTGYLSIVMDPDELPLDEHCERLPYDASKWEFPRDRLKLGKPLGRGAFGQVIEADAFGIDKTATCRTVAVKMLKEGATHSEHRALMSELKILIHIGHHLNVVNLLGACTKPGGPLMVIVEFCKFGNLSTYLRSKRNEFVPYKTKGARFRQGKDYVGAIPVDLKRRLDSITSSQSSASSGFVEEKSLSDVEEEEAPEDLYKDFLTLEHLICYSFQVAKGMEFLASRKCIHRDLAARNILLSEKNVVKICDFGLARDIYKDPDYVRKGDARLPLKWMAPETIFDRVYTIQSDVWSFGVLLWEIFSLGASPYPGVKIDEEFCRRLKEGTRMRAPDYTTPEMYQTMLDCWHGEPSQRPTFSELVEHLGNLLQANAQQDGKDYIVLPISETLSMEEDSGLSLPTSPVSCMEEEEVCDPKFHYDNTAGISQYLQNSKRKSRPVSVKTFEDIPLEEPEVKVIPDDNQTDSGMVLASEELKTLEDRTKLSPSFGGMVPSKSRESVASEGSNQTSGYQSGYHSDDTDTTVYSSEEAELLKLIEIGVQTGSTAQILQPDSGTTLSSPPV

[6] = set-up: method as in PMID 15863696; conditions: cited from earlier work
[7] = HCT-116, MDA-MB-231, HeLa, MCF-7, range, read-out: IC50 values, range over the cancer cell lines tested
[8] = cell count relative to the control (17β-E2)

COc1cc(/C=C/C(=O)c2ccccc2)ccc1OCc1ccccc1 [Compound 4t, (E)-3-(4-(Benzyloxy)-3-methoxyphenyl)-1-phenylprop-2-en-1-one]
IC50 (HCT-116): 68.9 ± 3.7 µM
IC50 (MDA-MB-231): 64.1 ± 3.8 µM
IC50 (HeLa): 59.3 ± 3.4 µM
IC50 (MCF-7 [1]): 55.6 ± 2.9 µM
IC50 at 24 h [2]: 40 to 40.1 µM
IC50 (WI-38): 40.1 ± 2.5 µM
IC50 [3, 7]: 55.6 to 82.8 µM

COc1cccc(/C=C/C(=O)c2ccccc2)c1 [Compound 4d, (E)-3-(3-Methoxyphenyl)-1-phenylprop-2-en-1-one]
IC50 (HCT-116): 36 ± 2.2 µM
IC50 (MDA-MB-231): 43.6 ± 2.3 µM
IC50 (HeLa): 39.4 ± 2.3 µM
IC50 (MCF-7 [1]): 29.7 ± 1.9 µM
IC50 at 24 h [2]: 77.3 to 100 µM
IC50 (WI-38): 77.3 ± 3.8 µM
IC50 [3, 7]: 23.5 to 74.5 µM

COc1ccc(C(=O)/C=C/c2ccc(OCc3ccccc3)c(OC)c2)cc1 [Compound 4v, (E)-3-(4-(Benzyloxy)-3-methoxyphenyl)-1-(4-methoxyphenyl)prop-2-en-1-one]
IC50 (HCT-116): 14.5 ± 1.1 µM
IC50 (MDA-MB-231): 10.2 ± 0.8 µM
IC50 (HeLa): 18.2 ± 1.5 µM
IC50 (MCF-7 [1]): 8.67 ± 0.6 µM
IC50 at 24 h [2]: 75.2 ± 3.9 µM
IC50 ([3]; HCT-116 and HeLa, range over the compounds named, read-out: IC50 values, range against HCT-116 and HeLa): 6.59 to 22.6 µM
IC50 ([3]; MDA-MB-231 and MCF-7, range over the compounds named, read-out: IC50 values, range against MDA-MB-231 and MCF-7): 2.08 to 13.6 µM
Inhibition (%) Aromatase ([4]; 0.01 µM, individual Data 1-3): 17% and 20%
Inhibition (%) Aromatase ([4]; 0.1 µM, individual Data 1-3): 36%
Inhibition (%) Aromatase ([4]; 1 µM, individual Data 1-3): 64% and 63%
Inhibition (%) Aromatase ([4]; 10 µM, individual Data 1-3): 84% and 87%
Inhibition (%) Aromatase ([4]; 100 µM, individual Data 1-3): 94% and 97%
IC50 ([4]; mean ± SD of triplicate, approximate values, read-out: Aromatase Inhibition IC50): 0.357 ± 0.012 µM
inhibition at 0.01 µM ([4]; read-out: Inhibition (%) Aromatase, 0.01 µM, individual Data 1-3): 18%
inhibition at 0.1 µM ([4]; read-out: Inhibition (%) Aromatase, 0.1 µM, individual Data 1-3): 34%
inhibition at 1 µM ([4]; read-out: Inhibition (%) Aromatase, 1 µM, individual Data 1-3): 66%
inhibition at 10 µM ([4]; read-out: Inhibition (%) Aromatase, 10 µM, individual Data 1-3): 85%
inhibition at 100 µM ([4]; read-out: Inhibition (%) Aromatase, 100 µM, individual Data 1-3): 95%
Cell Proliferation MCF-7 % (MCF-7 [5]; [8]): 73%
Cell Proliferation MCF-7 Cell Count (MCF-7 [5]; mean ± SD of triplicate): 13,611 ± 485
Reduction of growth/cell count (inhibition) in MCF-7 (MCF-7 [5]; relative to control): 27%
Cell Proliferation MCF-7a % (MCF-7a; [8]): 98%
Cell Proliferation MCF-7a Cell Count (MCF-7a; mean ± SD of triplicate): 20,397 ± 589
Inhibition in MCF-7a (MCF-7a; relative to control): 2%
IC50 (EGFR): 0.671 ± 0.022 µM
Inhibition (%) EGFR (EGFR; 0.01 µM, individual Data 1-3): 3.97% and 2.96% and 6%
Inhibition (%) EGFR (EGFR; 0.1 µM, individual Data 1-3): 28.6% and 31.2%
Inhibition (%) EGFR (EGFR; 1 µM, individual Data 1-3): 59.9% and 57.5%
Inhibition (%) EGFR (EGFR; 10 µM, individual Data 1-3): 82.3% and 86.7%
Inhibition (%) EGFR (EGFR; 100 µM, individual Data 1-3): 90.54% and 95%
inhibition at 0.1 µM (EGFR; read-out: Inhibition (%) EGFR, 0.1 µM, individual Data 1-3): 29.6%
inhibition at 1 µM (EGFR; read-out: Inhibition (%) EGFR, 1 µM, individual Data 1-3): 62.3%
inhibition at 10 µM (EGFR; read-out: Inhibition (%) EGFR, 10 µM, individual Data 1-3): 84.2%
inhibition at 100 µM (EGFR; read-out: Inhibition (%) EGFR, 100 µM, individual Data 1-3): 92.4%
IC50 (HER2): 1.57 ± 0.061 µM
Inhibition (%) Her2 (HER2; 0.01 µM, individual Data 1-3): 4.92% and 2.56% and 8.92%
Inhibition (%) Her2 (HER2; 0.1 µM, individual Data 1-3): 7.65% and 12.67%
Inhibition (%) Her2 (HER2; 1 µM, individual Data 1-3): 45.3% and 42.34%
Inhibition (%) Her2 (HER2; 10 µM, individual Data 1-3): 71.2% and 75.89%
Inhibition (%) Her2 (HER2; 100 µM, individual Data 1-3): 88.65% and 94.3%
inhibition at 0.1 µM (HER2; read-out: Inhibition (%) Her2, 0.1 µM, individual Data 1-3): 10.2%
inhibition at 1 µM (HER2; read-out: Inhibition (%) Her2, 1 µM, individual Data 1-3): 48.9%
inhibition at 10 µM (HER2; read-out: Inhibition (%) Her2, 10 µM, individual Data 1-3): 74.7%
inhibition at 100 µM (HER2; read-out: Inhibition (%) Her2, 100 µM, individual Data 1-3): 91.6%
IC50 (CDK2): 1.03 ± 0.032 µM
Inhibition (%) CDK2 (CDK2; 0.01 µM, individual Data 1-3): 5.2% and 8.6%
Inhibition (%) CDK2 (CDK2; 0.1 µM, individual Data 1-3): 18.3% and 24.97%
Inhibition (%) CDK2 (CDK2; 1 µM, individual Data 1-3): 47.4% and 43.2%
Inhibition (%) CDK2 (CDK2; 10 µM, individual Data 1-3): 76.2% and 84.1%
Inhibition (%) CDK2 (CDK2; 100 µM, individual Data 1-3): 89.1% and 95.3%
inhibition at 0.01 µM (CDK2; read-out: Inhibition (%) CDK2, 0.01 µM, individual Data 1-3): 6.58%
inhibition at 0.1 µM (CDK2; read-out: Inhibition (%) CDK2, 0.1 µM, individual Data 1-3): 22.9%
inhibition at 1 µM (CDK2; read-out: Inhibition (%) CDK2, 1 µM, individual Data 1-3): 51.2%
inhibition at 10 µM (CDK2; read-out: Inhibition (%) CDK2, 10 µM, individual Data 1-3): 79.3%
inhibition at 100 µM (CDK2; read-out: Inhibition (%) CDK2, 100 µM, individual Data 1-3): 92.3%
IC50 (VEGFR-2): 1.82 ± 0.062 µM
Inhibition (%) VEGFR2 (VEGFR-2; 0.01 µM, individual Data 1-3): 5.43% and 9.43%
Inhibition (%) VEGFR2 (VEGFR-2; 0.1 µM, individual Data 1-3): 15% and 21.8%
Inhibition (%) VEGFR2 (VEGFR-2; 1 µM, individual Data 1-3): 36.9% and 34.2%
Inhibition (%) VEGFR2 (VEGFR-2; 10 µM, individual Data 1-3): 67.26% and 74.3%
Inhibition (%) VEGFR2 (VEGFR-2; 100 µM, individual Data 1-3): 86% and 93.4%
inhibition at 0.01 µM (VEGFR-2; read-out: Inhibition (%) VEGFR2, 0.01 µM, individual Data 1-3): 7.43%
inhibition at 0.1 µM (VEGFR-2; read-out: Inhibition (%) VEGFR2, 0.1 µM, individual Data 1-3): 18.1%
inhibition at 1 µM (VEGFR-2; read-out: Inhibition (%) VEGFR2, 1 µM, individual Data 1-3): 39%
inhibition at 10 µM (VEGFR-2; read-out: Inhibition (%) VEGFR2, 10 µM, individual Data 1-3): 70.2%
inhibition at 100 µM (VEGFR-2; read-out: Inhibition (%) VEGFR2, 100 µM, individual Data 1-3): 89.2%

O=C(/C=C/c1ccc(O)cc1)c1ccccc1 [4-hydroxychacone]
Concentration at which estrogenic activity is shown [6]: 0.0001 mol

COc1ccccc1/C=C/C(=O)c1ccccc1 [Compound 4c, (E)-3-(2-Methoxyphenyl)-1-phenylprop-2-en-1-one]
IC50 (HCT-116): 28.4 ± 1.8 µM
IC50 (MDA-MB-231): 35.9 ± 2.1 µM
IC50 (HeLa): 42.5 ± 2.5 µM
IC50 (MCF-7 [1]): 23.5 ± 1.6 µM
IC50 at 24 h [2]: 77.3 to 100 µM
IC50 (WI-38): > 100 µM
IC50 [3, 7]: 23.5 to 74.5 µM

COc1cccc(C(=O)/C=C/c2ccc(OCc3ccccc3)c(OC)c2)c1 [Compound 4u, (E)-3-(4-(Benzyloxy)-3-methoxyphenyl)-1-(3-methoxyphenyl)prop-2-en-1-one]
IC50 (HCT-116): 95.3 ± 4.9 µM
IC50 (MDA-MB-231): > 100 µM
IC50 (HeLa): > 100 µM
IC50 (MCF-7 [1]): 82.8 ± 4.1 µM
IC50 at 24 h [2]: 40 to 40.1 µM
IC50 (WI-38): 39 ± 2.4 µM
IC50 [3, 7]: 55.6 to 82.8 µM
